# Results taken from US8906865B2, “Treatment of inflammation and/or endotoxic shock” (ISIS Innovation Limited, priority 2007, dated 2014).
# B1: Chemerin: 140 amino acid mouse Chemerin protein of Sequence ID no: 34 (protein, listed as Mus sp.)
# chain: TVGTEPELSETQRRSLQVALEEFHKHPPVQLAFQEIGVDRAEEVLFSAGTFVRLEFKLQQTNCPKKDWKKPECTIKPNGRRRKCLACIKMDPKGKILGRIVHCPILKQGPQDPQELQCIKIAQAGEDPHGYFLPGQFAFS
# Experiments:
# [1] = tested on: PMθ stimulated with Zymosan; assay: TNFα secretion by murine macrophages stimulated with Zymosan (ELISA); type: cell-based, mouse; settings: 1 pM pre-treatment 1 h, Zymosan 15 h
# Experimental: PMθ were cultured under various conditions: Untreated; Zymosan for 15 h; Chemerin (1 pM) pre-treatment for 1 h+Zymosan for 15 h. The bar graphs show mean expression of TNFα as determined by ELISA±SEM. Experiments were performed with triplicate determinations for each treatment. Representative data from three independent experiments employing cells from different donors are shown in FIG. 12. p<0.001 ***; p<0.01 ** relative to Zymosan-treated samples. Dexa refers to dexamethasone ([…]), nd refers to below the lower limit of detection (0.25 ng/ml).
# [2] = tested on: PMθ (peritoneal macrophages); assay: Checkerboard analysis (chemotaxis versus chemokinesis); type: cell-based, mouse; settings: for Chemotaxis versus chemokinesis (FIG. 13): C140 10-1000 pM, C15m 10-1000 pM
# Experimental: Checkerboard analysis allows differentiation between chemotaxis and chemokinesis. Chemotaxis is indicated by migration toward a higher concentration of chemoattractant in the lower well. Chemokinesis refers to increased non-directional cell movement and occurs regardless of the concentration gradient present. Checkerboard analysis was performed by pre-incubating cells with C140 (10-500 pM) or C15m (10-1000 pM) and allowing them to migrate towards C140 (10-1000 pM) or C15m (10-1000 pM), respectively in the lower well to form a checkerboard of concentrations.
# More specifically, PMθ were recruited following a 4 day peritoneal stimulation with BioGEL beads. Peritoneal cavities of male C57B16/J mice were lavaged with 5 ml PBS-2 mM EDTA. Cells were centrifuged and resuspended in RPMI supplemented with 0.5% BSA and 25 mM Hepes. Cells (0.5×10^6) were incubated with C140 or C15m for 30 mins before the chemotaxis assay and then allowed to migrate towards chemoattractant in the bottom well over 4 h. Filters were fixed in 4% formalin, then nuclei were stained with DAPI and visualised. Serum free media (SFM) was used as a negative control (−/−) and the CC chemokine RANTES as a positive control (25 ng/ml). The bar graphs in FIG. 13 show the mean Migration Index±SEM for each treatment group. Each bar represents at least triplicate wells and at least 3 pictures taken per treatment. p<0.001 *** relative to SFM-treated wells.
# [3] = tested on: C57B16/J mice, zymosan-induced peritonitis; assay: Zymosan-induced peritonitis in mice; type: in vivo, mouse; settings: single i.p. dose; 4 h post-zymosan
# [4] = tested on: PMΦ (peritoneal macrophages); assay: Macrophage chemotaxis assay (modified Boyden chamber); type: cell-based, mouse; settings: for Macrophage chemotactic activity: migration over 4 h, compared with C140 and RANTES 25 ng/ml
# Experimental: PMθ (0.5×10^6) were allowed to migrate towards chemoattractant (Chemerin140 or Chemerin peptides) in the bottom well of a modified Boyden chamber over 4 h. Filters were fixed in 4% formalin, then migrated cell nuclei were stained with DAPI and visualised. Serum free media (SFM) were used as a negative control and the macrophage chemoattractant RANTES (25 ng/ml; 3 nM) as a positive control. The graphs indicate mean Migration Index (Chemoattractant % threshold area/SFM % threshold area)±SEM for each treatment group (n=5-6). p<0.001 ***; p<0.01 **; p<0.05 * relative to SFM treated wells.
# PMθ were recruited following a 4 day peritoneal stimulation with BioGEL beads. Peritoneal cavities of male C57B16/J mice were lavaged with 5 ml PBS-2 mM EDTA. Cells were centrifuged and resuspended in RPMI supplemented with 0.5% BSA and 25 mM Hepes. Cells (0.5×10^6) were allowed to migrate towards chemoattractant (C140, C17m or C17m+C140) in the bottom well over 4 h. Filters were fixed in 4% formalin, then nuclei were stained with DAPI and visualised. Serum free media was used as a negative control (−/−). Cells were preincubated with Pertussis toxin (PTX) for 30 mins before the chemotaxis assay. The bar graphs in FIG. 11 show the mean Migration Index±SEM for each treatment group. Each bar represents at least triplicate wells and at least 3 pictures taken per treatment. p<0.001 ***; p<0.01 **; p<0.05 * relative to SFM treated wells unless otherwise stated.
# Cell migration was assessed by use of transwell membranes (ChemoTX, 6-mm diameter, 8-μm pore size). Briefly, BioGEL-elicited cells were harvested and placed on transwell membranes (250 000 cells/membrane in RPMI supplemented with 25 mM Hepes and 0.1% bovine serum albumin. Cells were allowed to migrate toward Chemerin peptides (1 pM-100 nM) for 4 h. Signal transduction via G protein-coupled receptors was blocked by preincubating cells with pertussis toxin (PTX, 200 ng/ml, Sigma-Aldrich) for 30 mins before placing cells on transwell membranes. Migrated cells on the underside of membranes were fixed (3% formaldehyde) and stained with DAPI. Migration was quantified as total pixel count of DAPI stained nuclei under the confocal microscope (2 photos/membrane and a minimum of 3 replicate wells per treatment). Images were analyzed using Metamorph Offline software to determine percentage threshold areas (TA) occupied by migrated cells. Migration indices were obtained by dividing treatment TA by serum-free media TA. For secondary chemotaxis assays ChemoTx 3-mm diameter, 8-μm pore membranes were used with 50 000 cells/membrane.
# C57B16/J mice = assay: Intraperitoneal Chemerin15-mouse alone (no zymosan): peritoneal cell recruitment and TNFα; type: in vivo; settings: 0.32 ng/kg i.p., 4 h
# Experimental: Male C57B16/J mice (8-12 weeks) were injected intra-peritoneally with 0.5 ml PBS or 0.5 ml Chemerin15-mouse (0.32 ng/kg). After 4 hours three animals per treatment group were sacrificed and peritoneal cavities washed with 5 ml PBS-3 mM EDTA. Total cell counts were obtained using Trypan blue exclusion test. For determination of cellular composition (Neutrophils vs mononuclear phagocytes), cells were blocked with 2.4G2 anti-FcgRII/III mAB for 5 mins and stained with PE-conjugated anti-mouse Ly-6G and FITC-conjugated anti-mouse 7/4 mAB for 10 mins. Cells were fixed in 1% formaldehyde prior to FACS analysis with CellQuest software. Gates were constructed around two populations, the neutrophils (N; 7/4^high, Ly-6G^high) and inflammatory monocytes (Mo; 7/4^high, Ly-6G^low). C15 refer to Chemerin15-mouse. p<0.01 ** relative to PBS-treated. Ns refers to no statistically significant difference p>0.05.
# peritoneal macrophages = assay: Zymosan recognition / phagocytosis by macrophages (FITC-zymosan, FACS); type: cell-based, mouse
# Experimental: For in vitro recognition of zymosan by macrophages, peritoneal exudate cells were isolated by lavage with ice-cold 2 mM EDTA in PBS from mice that had been treated intraperitoneally 4 d before with Biogel beads (2% w/v). Macrophages were plated in 24-well plates at a density of 2.5×10^5 cells per well in Optimem medium. Cells were washed three times with medium before the addition of Fluorescein isothiocyanate (FITC)-labeled zymosan (Invitrogen) in recognition assays at macrophage/particle ratios of 10:1 in the presence of either 0.1 pM, 1 pM, 10 pM, 100 pM or 1 nM Chemerin15. Vehicle=control sample without Chemerin15. FITC-zymosan uptake was followed by FACS analysis and is expressed as a relative recognition index i.e the ratio of %® cells uptaking zymosan×the ratio of geometric means C15 treated macrophages/geometric mean of macrophages treated with vehicle.
Molecule,Suppression of Zymosan-induced TNF expression (FIG. 12) [1] [%],Induction of macrophage chemotaxis relative to C140 [2],Chemotaxis versus chemokinesis (FIG. 13) [2],Lowest dose with significant anti-inflammatory effects (FIG. 14B) [3] [pg/mouse],Macrophage chemotactic activity [4],Concentration of maximal macrophage migration ([4]; tested 1 pM-100 nM) [pM],Monocyte or neutrophil migration after peptide alone (FIG. 9) (C57B16/J mice),Peritoneal TNFα after peptide alone (FIG. 9) (C57B16/J mice),"Macrophage phagocytosis of zymosan (FIG. 15) (peritoneal macrophages; 0.1 pM-1 nM, FITC-zymosan)",Concentration of greatest induction of macrophage phagocytosis (peritoneal macrophages; tested 0.1 pM-1 nM) [pM],"Effect of co-administration on C140-induced macrophage migration (FIG. 11) ([4]; C17m + C140 in bottom well, 4 h)"
AGEDPHGYFLPGQFA (listed as Mus sp.) [C15],21,much weaker inducer of macrophage chemotaxis,elicit true chemotaxis rather than chemokinesis,4,little chemotactic activity,100,does not cause monocyte or neutrophil migration,significant reduction in TNFα,induces macrophage phagocytosis of zymosan,10,
AGEDPHGYFLPGQFAFS (listed as Mus sp.) [C17m],30,,,,no chemotactic activity,,,,,,did not appear to affect macrophage migration to C140
B1,,,elicit true chemotaxis rather than chemokinesis,,,,,,,,
